Experimental findings from patent publication US11485720B2, “Anti-infective agents” (University of Dundee, priority 2016, dated 2022) are described below.

Assay [1] deals with Leishmania donovani. Briefly: Ld-cAxAm-TP-pMIC assay. The class given is cell-based. As to conditions: read-out: Ld-cAxAm-TP-pMIC pEC50 (converted).
In assay [2] the test system is Leishmania donovani. The assay is described as follows: Leishmania donovani intramacrophage inhibition assay (Ld-INMAC). The class given is cell-based. The settings on record: intramacrophage amastigotes in THP-1 cells, read-out: Ld-INMAC pEC50 (converted). On the procedure: Assay Method for Measurement of In Vitro Inhibition of Leishmania donovani.
These experiments were run in accordance with the method as detailed herein and results from these experiments are provided in the Experimental Results hereinafter.
The intramacrophage Leishmania assay was performed as described in de Rycker et al (Antimicrob Agents Chemother, 2013 July; 57(7):2913-22. doi: 10.1128/AAC.02398-12). Briefly, 1 μl of compound was pre-dispensed into 384 well sterile intermediary plates. For single point screening, amphotericin B was added to all wells of column 24 as a positive control (final concentration 2 μM) and DMSO to column 23. For potency determinations, ten-point, one in three dilution curves were created with the highest concentration being 50 μM and on each plate a control curve of amphotericin B was included. Controls were as follows: columns 11 and 12: DMSO, columns 23 and 24: amphotericin B (final concentration 2 μM). To the intermediary plates, 100 μl of THP-1 media was added and plates were shaken for >5 min to ensure complete mixing. THP-1 cells (8,000 per well, 50 μl) were plated into black clear-bottom 384 well plates (Corning) in presence of 10 nM PMA. After 20 min at room temperature, the plates were incubated at 37° C. under 5% CO2 in a humidified incubator for 75 h. The cells were then washed with […] sterile phosphate buffered saline (PBS) supplemented with 1 mM CaCl2, 0.5 mM MgCl2, 0.1% (w/v) bovine serum albumin (PBS-A) and amastigotes were added to all wells at a multiplicity of infection of 5 (40,000 amastigotes per well). After 40 min at room temperature, plates were returned to the incubator. Amastigotes were incubated in the presence of macrophages for 16 h. Any remaining extracellular amastigotes were subsequently removed with an overflow wash of 1 ml PBS-A per well (wash buffer is being aspirated from the top of the well as it is being dispensed) followed by addition of 25 μl of the compound pre-dilutions using a Matrix Hydra DT pipetting station. The final dilution of each compound was 200-fold. Plates were incubated for 72 h and then washed (250 μl PBS-A) and fixed (4% (v/v) formaldehyde-PBS, 30 min, room temperature). After fixation, the wells were washed with 250 μl PBS, stained (10 μg/ml DAPI, 0.4 μg ml-1 HCS Cellmask Deep Red in PBS+0.1% (v/v) Triton X-100, 30 min, room temperature) and washed with 250 μl PBS. Finally, PBS+0.05% (v/v) thimerosal was added to the wells, the plates were sealed and imaged on a high-content microscope (GE IN Cell 1000 or GE IN Cell 2000) using a 10× objective. Image analysis was carried out with GE IN Cell Analyzer 1000 Workstation using the “Multi Target Analysis” module. […]

The test system of a further assay is Cryptosporidium parvum. The assay is described as follows: In vitro Crytosporidium inhibition assay. The settings on record: Cryptosporidium parvum; read-out: Cryptosporidium parvum pEC50 (converted). The assay is classed as cell-based. An excerpt: Assay Method for Measurement of In Vitro Inhibition of Crytosporidium.
These experiments were run in accordance with the method of Besssoff et. al. Antimicrob. Agents Chemother. 2013, 57:1804-1814. Results from these experiments are provided in the Experimental Results hereinafter.

For assay [3], the target named is T1, Plasmodium falciparum lysyl t-RNA synthetase (Pf-KRS1) (Plasmodium falciparum, UniProt Q8IDJ8).
T1 construct: Pf KRS1-; made in house; host or cells: E. coli BL21 (DE3)
T1 sequence (Q8IDJ8 entry or part of it, looked up, natural form): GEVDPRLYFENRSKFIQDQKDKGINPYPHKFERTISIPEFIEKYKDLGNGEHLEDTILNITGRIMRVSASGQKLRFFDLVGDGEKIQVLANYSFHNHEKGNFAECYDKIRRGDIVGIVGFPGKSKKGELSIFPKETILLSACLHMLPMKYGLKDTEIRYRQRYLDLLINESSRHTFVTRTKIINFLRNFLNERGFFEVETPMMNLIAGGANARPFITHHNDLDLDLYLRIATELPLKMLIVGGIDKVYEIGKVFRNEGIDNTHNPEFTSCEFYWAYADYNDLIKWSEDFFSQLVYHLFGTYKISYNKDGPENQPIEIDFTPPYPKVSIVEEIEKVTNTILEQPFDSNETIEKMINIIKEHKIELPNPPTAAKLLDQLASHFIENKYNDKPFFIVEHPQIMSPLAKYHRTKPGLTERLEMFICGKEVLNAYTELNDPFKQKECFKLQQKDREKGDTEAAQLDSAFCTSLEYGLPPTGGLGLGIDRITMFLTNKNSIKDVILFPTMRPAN
Briefly: Pf-KRS1 inhibition biochemical assay (Kinase-Glo, ATP depletion). The settings on record: read-out: Pf-KRS pIC50 (converted). The procedure, abridged:
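Recombinant Pf-KRS1 (75 nM working concentration) in HEPES/KOH/MgCl2/KCl buffer with 3 μM ATP, 60 μM L-lysine, 0.4 mg/ml yeast tRNA and pyrophosphatase; compounds at 50 μM–2.5 nM final. Reaction ran 5 h at room temperature, then remaining ATP was read by Kinase-Glo luminescence. IC50 came from nonlinear fits of % inhibition against controls.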

With `O=C(NCC1CCCCC1)c1cc(=O)c2cc(F)cc(O)c2o1` [Example 70, N-(cyclohexylmethyl)-6-fluoro-8-hydroxy-4-oxo-4H-chromene-2-carboxamide], the EC50 in the assay on Leishmania donovani [1] is 794 nM; in the assay with Leishmania donovani [2], 15800 nM; in the assay on Cryptosporidium parvum it was 39.8 nM. In addition, in assay [3], the IC50 was 50.1 nM.
